Measurements taken from the kinase profiling compilation of Christmann-Franck et al. (2016).

Legend:
Assay in all cases: radiometric filter-binding kinase assay
[1] = system: AKT2 (human), P31751 [S474D]
AURKA (human) = AURKA (human) (UniProt O14965)
AURKB (human) = AURKB (human) (UniProt Q96GD4)
CHEK1 (human) = CHEK1 (human) (UniProt O14757)
CSNK1D (human) = CSNK1D (human) (UniProt P48730)
EEF2K (human) = EEF2K (human) (UniProt O00418)
EPHB1 (human) = EPHB1 (human) (UniProt P54762)
EPHB4 (human) = EPHB4 (human) (UniProt P54760)
FGFR1 (human) = FGFR1 (human) (UniProt P11362); details: compound 10.0 µM
FLT1 (human) = FLT1 (human) (UniProt P17948)
GCK (human) = GCK (human) (UniProt Q12851)
Sequence of GCK (human) (Q12851 whole entry, looked up): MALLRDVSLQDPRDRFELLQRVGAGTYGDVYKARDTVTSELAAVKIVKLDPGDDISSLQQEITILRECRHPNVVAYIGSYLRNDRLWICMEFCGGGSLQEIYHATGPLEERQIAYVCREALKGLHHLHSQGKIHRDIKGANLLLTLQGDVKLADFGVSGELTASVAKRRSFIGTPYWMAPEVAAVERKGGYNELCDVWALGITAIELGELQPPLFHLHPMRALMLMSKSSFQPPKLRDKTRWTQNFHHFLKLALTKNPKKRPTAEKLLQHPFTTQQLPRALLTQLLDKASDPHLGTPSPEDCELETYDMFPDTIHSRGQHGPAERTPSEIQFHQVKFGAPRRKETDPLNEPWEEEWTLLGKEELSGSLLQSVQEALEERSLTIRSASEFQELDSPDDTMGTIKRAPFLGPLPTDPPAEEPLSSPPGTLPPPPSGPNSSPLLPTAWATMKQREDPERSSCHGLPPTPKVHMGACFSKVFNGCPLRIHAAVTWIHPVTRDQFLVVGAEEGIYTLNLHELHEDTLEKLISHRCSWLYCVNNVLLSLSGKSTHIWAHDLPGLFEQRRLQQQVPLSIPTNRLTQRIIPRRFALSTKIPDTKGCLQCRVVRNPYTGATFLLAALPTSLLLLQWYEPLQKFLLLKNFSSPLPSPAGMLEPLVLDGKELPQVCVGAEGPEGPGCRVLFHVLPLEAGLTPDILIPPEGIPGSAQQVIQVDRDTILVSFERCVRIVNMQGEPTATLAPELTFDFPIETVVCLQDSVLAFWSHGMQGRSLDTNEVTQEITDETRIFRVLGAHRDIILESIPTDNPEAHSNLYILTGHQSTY

GSK3B (human) = GSK3B (human) (UniProt P49841)
HIPK1 (human) = HIPK1 (human) (UniProt Q86Z02)
HIPK2 (human) = HIPK2 (human) (UniProt Q9H2X6)
IGF1R (human) = IGF1R (human) (UniProt P08069)
MAP2K2 (human) = MAP2K2 (human) (UniProt P36507)
Sequence of MAP2K2 (human) (P36507 whole entry, looked up): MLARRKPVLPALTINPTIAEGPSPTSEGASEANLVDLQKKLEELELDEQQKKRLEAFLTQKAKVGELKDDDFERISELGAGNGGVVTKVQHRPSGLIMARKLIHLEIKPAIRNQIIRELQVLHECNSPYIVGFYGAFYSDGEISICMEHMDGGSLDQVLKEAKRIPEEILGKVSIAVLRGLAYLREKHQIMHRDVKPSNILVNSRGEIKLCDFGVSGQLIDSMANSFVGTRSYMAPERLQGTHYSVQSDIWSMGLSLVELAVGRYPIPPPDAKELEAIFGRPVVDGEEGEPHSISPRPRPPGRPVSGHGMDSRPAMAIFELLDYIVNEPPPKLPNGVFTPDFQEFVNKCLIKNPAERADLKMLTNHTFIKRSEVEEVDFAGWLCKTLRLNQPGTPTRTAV

MAP3K1 (human) = MAP3K1 (human) (UniProt Q13233)
MAP3K5 (human) = MAP3K5 (human) (UniProt Q99683)
MAP3K9 (human) = MAP3K9 (human) (UniProt P80192)
MAPK1 (human) = MAPK1 (human) (UniProt P28482); details: compound 10.0 µM
MAPK10 (human) = MAPK10 (human) (UniProt P53779)
MAPK13 (human) = MAPK13 (human) (UniProt O15264)
MAPK9 (human) = MAPK9 (human) (UniProt P45984)
MARK4 (human) = MARK4 (human) (UniProt Q96L34)
MELK (human) = MELK (human) (UniProt Q14680)
Sequence of MELK (human) (Q14680 whole entry, looked up): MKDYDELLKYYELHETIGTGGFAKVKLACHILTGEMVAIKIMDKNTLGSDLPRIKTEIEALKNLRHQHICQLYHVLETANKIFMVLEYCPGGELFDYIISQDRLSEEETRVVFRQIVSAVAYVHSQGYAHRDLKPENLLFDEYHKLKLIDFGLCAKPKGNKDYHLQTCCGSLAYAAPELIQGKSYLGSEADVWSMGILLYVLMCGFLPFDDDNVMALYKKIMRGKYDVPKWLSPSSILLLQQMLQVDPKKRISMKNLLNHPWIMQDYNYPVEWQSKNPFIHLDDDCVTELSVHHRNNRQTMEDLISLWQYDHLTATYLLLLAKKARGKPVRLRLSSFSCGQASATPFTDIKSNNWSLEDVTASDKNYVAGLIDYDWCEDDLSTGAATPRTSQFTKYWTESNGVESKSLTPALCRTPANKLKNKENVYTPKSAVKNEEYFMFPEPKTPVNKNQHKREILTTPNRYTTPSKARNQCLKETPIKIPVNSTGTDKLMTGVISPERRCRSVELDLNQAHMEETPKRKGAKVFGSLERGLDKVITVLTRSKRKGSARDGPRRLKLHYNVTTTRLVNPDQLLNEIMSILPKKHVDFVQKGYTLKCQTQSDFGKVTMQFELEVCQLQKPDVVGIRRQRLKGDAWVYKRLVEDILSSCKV

[2] = system: PAK2 (human), Q13177 [T402E]
PAK6 (human) = PAK6 (human) (UniProt Q9NQU5)
PKN2 (human) = PKN2 (human) (UniProt Q16513)
PRKCZ (human) = PRKCZ (human) (UniProt Q05513)
SRC (human) = SRC (human) (UniProt P12931)
Sequence of SRC (human) (P12931 whole entry, looked up): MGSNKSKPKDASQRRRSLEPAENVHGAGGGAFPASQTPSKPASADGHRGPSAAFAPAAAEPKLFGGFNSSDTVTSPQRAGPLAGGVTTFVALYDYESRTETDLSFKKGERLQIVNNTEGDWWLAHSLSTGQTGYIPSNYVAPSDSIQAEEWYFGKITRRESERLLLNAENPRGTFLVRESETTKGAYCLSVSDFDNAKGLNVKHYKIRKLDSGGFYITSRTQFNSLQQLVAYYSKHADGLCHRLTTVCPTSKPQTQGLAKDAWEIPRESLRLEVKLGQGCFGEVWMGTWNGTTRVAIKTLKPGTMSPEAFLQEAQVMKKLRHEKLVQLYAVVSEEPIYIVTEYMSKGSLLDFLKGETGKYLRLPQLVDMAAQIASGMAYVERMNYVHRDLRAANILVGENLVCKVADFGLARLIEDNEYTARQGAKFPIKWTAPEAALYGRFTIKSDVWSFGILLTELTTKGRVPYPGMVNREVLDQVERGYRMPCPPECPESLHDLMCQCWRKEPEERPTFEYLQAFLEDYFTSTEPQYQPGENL

[3] = molecular target: STK11 CAB39 STRADA (human) (UniProt Q9Y376+Q7RTN6+Q15831)
SYK (human) = SYK (human) (UniProt P43405)
TAOK1 (human) = TAOK1 (human) (UniProt Q7L7X3)
TTK (human) = TTK (human) (UniProt P33981)
YES1 (human) = YES1 (human) (UniProt P07947)
Sequence of YES1 (human) (P07947 whole entry, looked up): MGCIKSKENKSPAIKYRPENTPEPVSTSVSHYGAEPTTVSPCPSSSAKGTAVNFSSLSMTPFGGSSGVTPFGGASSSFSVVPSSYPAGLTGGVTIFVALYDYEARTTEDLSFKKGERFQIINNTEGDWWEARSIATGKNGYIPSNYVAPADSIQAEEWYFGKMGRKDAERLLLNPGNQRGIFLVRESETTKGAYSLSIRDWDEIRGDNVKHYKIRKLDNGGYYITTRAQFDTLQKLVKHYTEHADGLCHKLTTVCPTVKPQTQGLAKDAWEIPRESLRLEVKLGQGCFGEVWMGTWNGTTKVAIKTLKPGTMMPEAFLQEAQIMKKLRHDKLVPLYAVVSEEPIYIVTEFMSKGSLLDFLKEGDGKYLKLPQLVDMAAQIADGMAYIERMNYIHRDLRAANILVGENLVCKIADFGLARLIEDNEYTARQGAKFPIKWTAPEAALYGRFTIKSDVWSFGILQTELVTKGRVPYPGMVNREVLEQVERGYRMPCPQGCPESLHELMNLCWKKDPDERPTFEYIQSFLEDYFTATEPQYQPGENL

MYLK (human) = MYLK (human) (UniProt Q15746)

Sequence of CSNK1D (human) (P48730 whole entry, looked up): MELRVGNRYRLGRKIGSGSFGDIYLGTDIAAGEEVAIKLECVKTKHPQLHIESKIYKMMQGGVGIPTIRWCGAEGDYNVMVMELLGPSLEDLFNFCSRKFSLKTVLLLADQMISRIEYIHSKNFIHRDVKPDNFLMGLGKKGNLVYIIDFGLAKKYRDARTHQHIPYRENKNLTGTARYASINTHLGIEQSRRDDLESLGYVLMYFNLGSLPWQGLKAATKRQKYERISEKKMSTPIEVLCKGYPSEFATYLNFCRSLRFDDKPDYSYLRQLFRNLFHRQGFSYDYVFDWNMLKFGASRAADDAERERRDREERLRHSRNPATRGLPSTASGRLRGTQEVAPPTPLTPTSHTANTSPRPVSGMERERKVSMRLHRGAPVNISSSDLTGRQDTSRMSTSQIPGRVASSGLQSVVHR
Sequence of AURKA (human) (O14965 whole entry, looked up): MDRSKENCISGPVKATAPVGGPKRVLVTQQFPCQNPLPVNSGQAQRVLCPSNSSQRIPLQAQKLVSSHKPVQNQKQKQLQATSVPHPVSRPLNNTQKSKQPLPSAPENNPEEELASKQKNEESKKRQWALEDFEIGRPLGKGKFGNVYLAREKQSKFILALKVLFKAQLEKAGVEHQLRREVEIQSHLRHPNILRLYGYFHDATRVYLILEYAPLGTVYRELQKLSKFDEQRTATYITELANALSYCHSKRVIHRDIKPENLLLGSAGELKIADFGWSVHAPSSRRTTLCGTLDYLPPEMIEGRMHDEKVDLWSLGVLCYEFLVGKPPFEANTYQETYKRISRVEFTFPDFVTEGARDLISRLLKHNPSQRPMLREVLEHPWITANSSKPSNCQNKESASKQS
Sequence of EPHB1 (human) (P54762 whole entry, looked up): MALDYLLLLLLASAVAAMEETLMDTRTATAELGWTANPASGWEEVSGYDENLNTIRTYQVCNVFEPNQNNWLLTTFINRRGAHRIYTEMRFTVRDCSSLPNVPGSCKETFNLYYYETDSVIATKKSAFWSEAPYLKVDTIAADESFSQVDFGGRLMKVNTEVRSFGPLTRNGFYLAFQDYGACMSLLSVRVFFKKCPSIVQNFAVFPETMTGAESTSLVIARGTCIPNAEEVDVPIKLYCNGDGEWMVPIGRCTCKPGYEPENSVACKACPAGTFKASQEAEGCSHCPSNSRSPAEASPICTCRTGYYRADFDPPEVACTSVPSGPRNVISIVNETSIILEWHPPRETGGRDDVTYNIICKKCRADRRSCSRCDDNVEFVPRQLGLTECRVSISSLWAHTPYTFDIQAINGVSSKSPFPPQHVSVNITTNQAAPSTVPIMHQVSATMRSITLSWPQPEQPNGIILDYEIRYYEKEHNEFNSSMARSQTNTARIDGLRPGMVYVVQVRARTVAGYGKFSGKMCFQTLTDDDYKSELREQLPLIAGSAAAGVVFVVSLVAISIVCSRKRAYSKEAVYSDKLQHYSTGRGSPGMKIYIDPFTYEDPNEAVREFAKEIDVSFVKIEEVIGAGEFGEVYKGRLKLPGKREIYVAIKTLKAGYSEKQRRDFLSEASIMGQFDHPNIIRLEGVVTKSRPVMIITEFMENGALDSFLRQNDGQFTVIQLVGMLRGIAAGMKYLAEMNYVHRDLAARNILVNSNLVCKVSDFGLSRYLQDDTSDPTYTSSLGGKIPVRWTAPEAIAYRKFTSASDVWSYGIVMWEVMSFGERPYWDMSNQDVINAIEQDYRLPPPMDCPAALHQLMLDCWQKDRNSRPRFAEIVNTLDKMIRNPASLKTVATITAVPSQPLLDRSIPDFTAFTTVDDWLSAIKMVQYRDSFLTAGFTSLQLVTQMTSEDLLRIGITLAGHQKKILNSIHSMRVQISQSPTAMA

## NS(=O)(=O)OC[C@@H]1C[C@@H](n2ccc3c(N[C@H]4CCc5ccccc54)ncnc32)C[C@@H]1O
[1]; compound 10.0 µM
  residual activity: 88%
AURKA (human); compound 1.0 µM
  residual activity: 103%
AURKA (human); compound 10.0 µM
  residual activity: 97%
AURKB (human); compound 10.0 µM
  residual activity: 93%
CHEK1 (human); compound 1.0 µM
  residual activity: 91%
CHEK1 (human); compound 10.0 µM
  residual activity: 98%
CSNK1D (human); compound 1.0 µM
  residual activity: 86%
CSNK1D (human); compound 10.0 µM
  residual activity: 84%
EEF2K (human); compound 1.0 µM
  residual activity: 100%
EEF2K (human); compound 10.0 µM
  residual activity: 107%
EPHB1 (human); compound 10.0 µM
  residual activity: 100%
EPHB4 (human); compound 1.0 µM
  residual activity: 106%
EPHB4 (human); compound 10.0 µM
  residual activity: 108%
FGFR1 (human)
  residual activity: 126%
FLT1 (human); compound 1.0 µM
  residual activity: 89%
FLT1 (human); compound 10.0 µM
  residual activity: 104%
GCK (human); compound 1.0 µM
  residual activity: 91%
GCK (human); compound 10.0 µM
  residual activity: 88%
GSK3B (human); compound 1.0 µM
  residual activity: 93%
GSK3B (human); compound 10.0 µM
  residual activity: 98%
HIPK1 (human); compound 1.0 µM
  residual activity: 98%
HIPK2 (human); compound 1.0 µM
  residual activity: 88%
HIPK2 (human); compound 10.0 µM
  residual activity: 97%
IGF1R (human); compound 1.0 µM
  residual activity: 94%
IGF1R (human); compound 10.0 µM
  residual activity: 88%
MAP2K2 (human); compound 1.0 µM
  residual activity: 104%
MAP2K2 (human); compound 10.0 µM
  residual activity: 99%
MAP3K1 (human); compound 10.0 µM
  residual activity: 107%
MAP3K5 (human); compound 1.0 µM
  residual activity: 87%
MAP3K5 (human); compound 10.0 µM
  residual activity: 87%
MAP3K9 (human); compound 1.0 µM
  residual activity: 82%
MAP3K9 (human); compound 10.0 µM
  residual activity: 88%
MAPK1 (human)
  residual activity: 89%
MAPK10 (human); compound 1.0 µM
  residual activity: 81%
MAPK10 (human); compound 10.0 µM
  residual activity: 82%
MAPK13 (human); compound 1.0 µM
  residual activity: 92%
MAPK13 (human); compound 10.0 µM
  residual activity: 90%
MAPK9 (human); compound 1.0 µM
  residual activity: 83%
MAPK9 (human); compound 10.0 µM
  residual activity: 88%
MARK4 (human); compound 1.0 µM
  residual activity: 93%
MARK4 (human); compound 10.0 µM
  residual activity: 103%
MELK (human); compound 1.0 µM
  residual activity: 87%
MELK (human); compound 10.0 µM
  residual activity: 91%
[2]; compound 1.0 µM
  residual activity: 98%
[2]; compound 10.0 µM
  residual activity: 93%
PAK6 (human); compound 1.0 µM
  residual activity: 94%
PAK6 (human); compound 10.0 µM
  residual activity: 91%
PKN2 (human); compound 1.0 µM
  residual activity: 90%
PKN2 (human); compound 10.0 µM
  residual activity: 92%
PRKCZ (human); compound 10.0 µM
  residual activity: 96%
SRC (human); compound 10.0 µM
  residual activity: 113%
[3]; compound 1.0 µM
  residual activity: 127%
[3]; compound 10.0 µM
  residual activity: 104%
SYK (human); compound 1.0 µM
  residual activity: 92%
SYK (human); compound 10.0 µM
  residual activity: 104%
TAOK1 (human); compound 1.0 µM
  residual activity: 104%
TAOK1 (human); compound 10.0 µM
  residual activity: 100%
TTK (human); compound 1.0 µM
  residual activity: 86%
TTK (human); compound 10.0 µM
  residual activity: 98%
YES1 (human); compound 10.0 µM
  residual activity: 79%

## Nc1cccc2c1CN(C1CCC(=O)NC1=O)C2=O (stereo unspecified)
[1]; compound 1.0 µM
  residual activity: 85%
[1]; compound 10.0 µM
  residual activity: 94%
AURKA (human); compound 1.0 µM
  residual activity: 113%
AURKA (human); compound 10.0 µM
  residual activity: 100%
AURKB (human); compound 1.0 µM
  residual activity: 83%
AURKB (human); compound 10.0 µM
  residual activity: 105%
CHEK1 (human); compound 1.0 µM
  residual activity: 94%
CHEK1 (human); compound 10.0 µM
  residual activity: 82%
CSNK1D (human); compound 1.0 µM
  residual activity: 102%
CSNK1D (human); compound 10.0 µM
  residual activity: 97%
EEF2K (human); compound 1.0 µM
  residual activity: 94%
EEF2K (human); compound 10.0 µM
  residual activity: 82%
EPHB1 (human); compound 1.0 µM
  residual activity: 115%
EPHB1 (human); compound 10.0 µM
  residual activity: 126%
EPHB4 (human); compound 1.0 µM
  residual activity: 91%
EPHB4 (human); compound 10.0 µM
  residual activity: 99%
FGFR1 (human)
  residual activity: 109%
FLT1 (human); compound 1.0 µM
  residual activity: 100%
FLT1 (human); compound 10.0 µM
  residual activity: 110%
GCK (human); compound 1.0 µM
  residual activity: 103%
GCK (human); compound 10.0 µM
  residual activity: 114%
GSK3B (human); compound 10.0 µM
  residual activity: 92%
HIPK1 (human); compound 1.0 µM
  residual activity: 92%
HIPK1 (human); compound 10.0 µM
  residual activity: 101%
HIPK2 (human); compound 1.0 µM
  residual activity: 107%
HIPK2 (human); compound 10.0 µM
  residual activity: 103%
IGF1R (human); compound 1.0 µM
  residual activity: 106%
IGF1R (human); compound 10.0 µM
  residual activity: 106%
MAP2K2 (human); compound 1.0 µM
  residual activity: 83%
MAP2K2 (human); compound 10.0 µM
  residual activity: 81%
MAP3K1 (human); compound 1.0 µM
  residual activity: 101%
MAP3K1 (human); compound 10.0 µM
  residual activity: 97%
MAP3K5 (human); compound 1.0 µM
  residual activity: 102%
MAP3K5 (human); compound 10.0 µM
  residual activity: 101%
MAP3K9 (human); compound 1.0 µM
  residual activity: 99%
MAP3K9 (human); compound 10.0 µM
  residual activity: 99%
MAPK10 (human); compound 1.0 µM
  residual activity: 90%
MAPK10 (human); compound 10.0 µM
  residual activity: 95%
MAPK13 (human); compound 1.0 µM
  residual activity: 109%
MAPK13 (human); compound 10.0 µM
  residual activity: 123%
MAPK9 (human); compound 1.0 µM
  residual activity: 100%
MAPK9 (human); compound 10.0 µM
  residual activity: 102%
MARK4 (human); compound 10.0 µM
  residual activity: 90%
MELK (human); compound 1.0 µM
  residual activity: 94%
MELK (human); compound 10.0 µM
  residual activity: 90%
MYLK (human); compound 1.0 µM
  residual activity: 94%
MYLK (human); compound 10.0 µM
  residual activity: 94%
[2]; compound 1.0 µM
  residual activity: 101%
[2]; compound 10.0 µM
  residual activity: 103%
PAK6 (human); compound 1.0 µM
  residual activity: 102%
PAK6 (human); compound 10.0 µM
  residual activity: 104%
PKN2 (human); compound 1.0 µM
  residual activity: 93%
PKN2 (human); compound 10.0 µM
  residual activity: 88%
PRKCZ (human); compound 1.0 µM
  residual activity: 100%
PRKCZ (human); compound 10.0 µM
  residual activity: 108%
SRC (human); compound 1.0 µM
  residual activity: 105%
SRC (human); compound 10.0 µM
  residual activity: 114%
[3]; compound 1.0 µM
  residual activity: 116%
[3]; compound 10.0 µM
  residual activity: 112%
SYK (human); compound 10.0 µM
  residual activity: 114%
TAOK1 (human); compound 1.0 µM
  residual activity: 106%
TAOK1 (human); compound 10.0 µM
  residual activity: 96%
TTK (human); compound 1.0 µM
  residual activity: 104%
TTK (human); compound 10.0 µM
  residual activity: 118%
YES1 (human); compound 1.0 µM
  residual activity: 102%
YES1 (human); compound 10.0 µM
  residual activity: 102%
